The results in this text go back to patent publication US11090307B2, “Treating male senescence” (National Institute of Biological Sciences, Beijing, priority 2017, dated 2021).

For assay [1], the system named is 13-month old male wild type mice. Nature of the assay: Long-term feeding of 13-month old male wild type mice with RIPA-56 chow for two months. The assay is classed as in vivo. As for the experimental part: We subsequently chose the 300 mg/kg dose to continuously feed 13-month old male wild type mice for two months to study the long-term effects of blocking necroptosis on testes. […] Additionally, the testosterone level of RIPA-56-treated mice remained high, while that of control mice decreased. […] Finally, the fertility rates of the RIPA-56-treated mice were much higher than those of control mice with 19 out of 25 mice on the RIPA-56 diet were fertile while only 6 out of 23 mice on normal diet produced progeny.

Assay [2] has as its system phospho-MLKL in the testes. The assay can be described thus: TSZ-induced necroptosis in testes of mice fed RIPA-56-containing chow. The assay is classed as in vivo. As for the experimental part:
We therefore evaluated the effects of a newly-identified, highly-potent, and highly-specific RIP1 kinase inhibitor from our laboratory (henceforth ‘RIPA-56’)(Ren et al., 2017) by incorporating it into mouse food at 150 mg/kg and 300 mg/kg doses. We first tested the effect of RIPA-56 on necroptosis in testes by injecting TSZ into testes of 2-month old mice after feeding the mice with increasing concentrations of RIPA-56-containing chow for one week.

As for `CCC(C)(C)C(=O)N(O)Cc1ccccc1` [RIPA-56], in assay [1] (300 mg/kg in food, two months), the empty seminiferous tubules entry is given as “hardly any seminiferous vesicles were empty”; the “fertility rate (fertile mice)” value is recorded as 19 out of 25; the “gross male aging metrics (body weight, fat deposition, libido, fertility, muscle mass, prostate hyperplasia)” value is listed as “more youthful gross male aging metrics”; the “mass of seminal vesicles” value is “around 1,000 milligrams”. Also, the testosterone level entry in assay [1] (300 mg/kg in food, two months) is “remained high”. In addition, the body weight result in assay [1] (300 mg/kg in food, two months, vs control chow diet) is on record as “weighed less than mice fed with control chow diet”. Further, in assay [1] (necroptosis blocked pharmaceutically), the age-associated weight gain entry is listed as “much less age-associated wright gain”. In addition, the “block of necroptosis in testes” value in assay [2] (300 mg/kg dose in chow, one week, TSZ into testes) was “completely block necroptosis”. The “appearance of TSZ-induced phospho-MLKL in the testes” value in assay [2] (2-month old mice, chow with increasing concentrations (150 mg/kg and 300 mg/kg) for one week, then TSZ into testes) is “blocked the appearance of TSZ-induced phospho-MLKL in the testes in a dose-dependent manner”.
